From publication PMC8213385, “Development of a Fluorescent Assay to Search New Drugs Using Stable tdTomato-Leishmania, and the Selection of Galangin as a Candidate With Anti-Leishmanial Activity” (Frontiers in Cellular and Infection Microbiology, 2021) come the findings set out here.

Series [1] concerns promastigotes of L. amaz/tc3. Nature of the series: Fluorescence assay against promastigotes of L. amaz/tc3 (tdTomato). Type of series: cell-based, Leishmania (Leishmania) amazonensis. Particulars: Leishmania, 48 h, read-out: IC50 against promastigotes of L. amaz/tc3. Here is the method:
Then, we evaluated the efficacy of MI, a reference drug for leishmaniasis by the fluorescence method (L. amaz/tc3) and by the conventional method based in counting the parasite at the optic microscope (L. amaz/wt). Mid-log promastigotes of L. amaz/tc3 and L. amaz/wt were harvest and seeded (1 x 10^6/0.1 ml) with different concentrations of MI (40 to 0.6 µg/ml) in a 96-well plate at 23°C. Promastigotes cultured only in medium were the controls. Parasite viability was determined by measuring the fluorescence of L. amaz/tc3 in a plate reader (Tecan, Männedorf, Switzerland) and by counting the mobile promastigotes in a Neubauer chamber at the optic microscope (40x) (Leitz Wetzlar, Germany) at 48 h of incubation with MI. Viability was calculated with the formula: ViabilityL.amaz/tc3 =FLt/FLc×100 where, FLt is the fluorescence of treated culture, and FLc is the fluorescence of control; ViabilityL.amaz/wt=NPt/NPc×100 where, NPt is the number of promastigotes in the treated culture, and NPc is the number of promastigotes in control culture. Then, the 50% inhibitory concentration (IC50) of MI was estimated.
After fluorescence assay validation as it is described above, the method was used to evaluate in vitro the flavonoids anti-leishmanial activity. Mid-log promastigotes of L. amaz/tc3 were harvest and seeded with different concentrations of GAL (1,200 to 18.75 µM), MO, FI and RU (40 to 1.25 µM), and EGCG (300 to 18.75 µM). Positive control were promastigotes treated with PE (4 to 0.25 µM), the negative control were promastigotes cultured with medium only, and the blank was the culture medium. The parasites were incubated at 23°C for 48 h. The anti-leishmanial activity was determined by measuring the parasite fluorescence in a plate reader (Tecan, Männedorf, Switzerland). The viability was estimated as was described above for MI (fluorescent assay). The IC50 was calculated for each compound.

For series [2], the system named is intracellular amastigotes of L. amaz/tc3. Put plainly: Fluorescence assay in the macrophage-amastigote model (Raw 264.7 infected with L. amaz/tc3). Type of series: cell-based, Leishmania (Leishmania) amazonensis. How it is done: (§1) Furthermore, the efficacy of MI was also determined against intracellular amastigotes of L. amaz/tc3 and L. amaz/wt. Raw 264.7 macrophages were plated in 96-well black plate (5 x 10^4 cells/well) and in eight well Lab-Tek tissue culture slides (6.6 x 10^4 cells/ml) (Nunc, USA). The cells were infected with promastigotes in stationary phase of L. amaz/tc3 and L. amaz/wt (1:20 ratio) at 33°C, 5% CO2. After incubation, the infected macrophages were washed to remove non-internalized parasites with PBS plus P-S. New RPMI-1640 medium with different concentrations of MI (20 to 0.62 µg/ml) was added to each well and incubated at 33°C, 5% CO2 during 48 h. The anti-leishmanial activity of MI was determined by measuring the fluorescence of intracellular amastigotes of L. amaz/tc3 in a plate reader (Tecan, Männedorf, Switzerland). The viability was calculated as mentioned above, and the IC50 was also estimated. Simultaneously, the leishmanicidal activity of MI against L. amaz/wt was determined by the microscopy test. In this case, the infected macrophages were stained with Diff Quik (Biopur S.R.L., Rosario, Argentina) and the number of intracellular amastigotes was determined in 200-500 macrophages in treated and control cultures per slide under the immersion lens microscope (100x) (Leitz Wetzlar, Germany). The infection index (II) and the % infectivity (I) were calculated by the following formulas: II = IM × A, where IM= infected macrophages (%), A= number of amastigotes per infected macrophages; and I(%)=IIT/IIc×100, where IIT= infection index in treated cultures, IIC= infection index in control cultures ([Ayres et al., 2008]). The IC50 of MI was calculated.
The flavonoids anti-leishmanial activity was also evaluated against intracellular amastigotes. Macrophages (Raw 264.7) were plated in 96-well black plate (5 x 10^4 cell/well) and infected with promastigotes in stationary phase of L. amaz/tc3 (1:20 ratio) at 33°C, 5% CO2. After incubation, the infected macrophages were washed to remove non-internalized parasites with PBS plus P-S. New RPMI-1640 medium with different concentrations of GAL (30 to 3.75 µM), MO (300 to 37.5 µM), FI (65 to 8.12 µM), RU (300 to 37.5 µM) and EGCG (30 to 7.5 µM) was added to each well and incubated at 33°C, 5% CO2 for 48 h. Infected cells treated with Ma (136.6 to 34.1 µM) were the positive controls, and cells incubated only with RPMI-1640 were the negative control. The infected macrophages were incubated during 48 h at 33°C, 5% CO2. After treatment, the fluorescence of intracellular amastigotes of L. amaz/tc3 was measured in a plate reader (Tecan, Männedorf, Switzerland). The viability was determined as was described for MI (fluorescent assay). The selectivity index (SI) (CC50 for macrophages/IC50 for Leishmania) was calculated.

Series [3] deals with intracellular amastigotes of L. (L.) amazonensis. Put plainly: Microscopic assay, counting intracellular amastigotes in Raw 264.7 macrophages at the optic microscope. Type of series: cell-based, Leishmania (Leishmania) amazonensis. Here is the method:
as §1
Then, to estimate the IC50 values of GAL, FI and MO; and to confirm the IC50 of RU, the activity was evaluated quantifying the intracellular amastigotes at the optic microscope. We followed the same methodology described for MI (microscopic assay) in “In Vitro, Fluorescent Assay Validation” section and the range of concentrations were for GAL (30 to 7.5 µM), FI (60 to 15 µM), RU and MO (200 to 50 µM), EGCG (142 a 17.7 µM).

The nature of series [4]: Cytotoxicity in macrophage cell line by the MTT method (colorimetric). Type of series: cell-based. Particulars: mouse, Raw 264.7 macrophage cell line; Raw 264.7, MTT, 48 h; read-out: Colorimetric CC50 μM (SE). Here is the method: The cytotoxicity against a cell line of macrophages (Raw 264.7) of GAL, MO, FI, RU, EGCG, PE, MI and MA was determined by the MTT method. Cells (3.3 x 10^5/ml) cells were treated with different concentrations of each compound during 48 h at 37°C, 5% CO2. The controls were incubated with RPMI-1640 medium. Briefly, 50 µl of MTT (2 mg/mL) was added to each well and, after 4 h of incubation at 37°C, 5% CO2, the reaction was stopped dissolving the formazan crystals with 100 µl/well of dimethyl sulfoxide. The relative amount of formazan produced by viable macrophages was determined using a spectrophotometer at 595 nm. The percentage of viable cells was calculated according to the formula (OD treated culture−OD blank)/(OD control−OD blank) ×100 as was described previously ([Adinehbeigi et al., 2017]). The cytotoxicity concentration 50% (CC50) was calculated for each compound.

The inhibition is the change of the read-out against control, counted positive when it falls. A word on the CC50: it is the concentration at which the toxic effect on the cells reaches its halfway point. On to `O=c1c(O)c(-c2ccccc2)oc2cc(O)cc(O)c12` [GAL, Galangin], for which the IC50 is 53.1 µM in series [1] and 20.6 µM in series [3] (Leishmania amazonensis, RAW264.7, Raw 264.7 macrophages, 48 h, optic microscope, read-out: Microscopic IC50 μM (SE), intracellular amastigotes). Besides, the “Fluorescence Inhibition (%) of amastigotes” value in series [2] (15 µM, 48 h) was 29%. For the same compound, the inhibition at 15 µM in series [2] (Leishmania, RAW264.7, 48 h, read-out: Fluorescence Inhibition (%) of amastigotes, 15 µM, 48 h) was 29 to 31%. For the same compound, in series [3] (CC50 for macrophages/IC50 for Leishmania (intracellular amastigotes; Ma from fluorescence IC50)), the “SI (Selectivity index)” value was 1.1. Also, the CC50 at 48 h in series [4] turned out to be 22.8 µM.
